Test results as given in patent US9006487B2, “Amine-containing lipids and uses thereof” (Massachusetts Institute of Technology, priority 2005, dated 2015).

System: cos-7 cells
Experiment: DNA transfection: luciferase expression relative to Lipofectamine 2000
Assay type: cell-based
Conditions: 300 ng Luciferase DNA per well, luciferase assay after 48 hours
In short: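 Lipid/DNA complexes, 300 ng luciferase DNA per well at 2.5-25 w/w lipid:DNA, were formed in sodium acetate/Optimem and added to overnight-seeded cos-7 cells. Luciferase was measured by Bright-Glo luminescence after 48 hours and quantified against an enzyme standard curve. Values are expressed as % of Lipofectamine 2000 at 2.5 w/w.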

SMILES | Luciferase expression as a percentage of that achieved using Lipofectamine 2000 (lipid/DNA 2.5 w/w) [%] | Luciferase expression as a percentage of that achieved using Lipofectamine 2000 (lipid/DNA 5 w/w) [%] | Luciferase expression as a percentage of that achieved using Lipofectamine 2000 (lipid/DNA 10 w/w) [%] | Luciferase expression as a percentage of that achieved using Lipofectamine 2000 (lipid/DNA 15 w/w) [%] | Luciferase expression as a percentage of that achieved using Lipofectamine 2000 (lipid/DNA 20 w/w) [%] | Luciferase expression as a percentage of that achieved using Lipofectamine 2000 (lipid/DNA 25 w/w) [%]
CCCCCCCCCCCCCOC(=O)CCN(CCC(=O)OCCCCCCCCCCCCC)CCN1CCOCC1 [LE90] | 0.5 | 0.3 | 0.4 | 0.4 | 0.4 | 0.4
CCCCCCCCCCCCCCOC(=O)CCN(CCCOC)CCC(=O)OCCCCCCCCCCCCCC [LF1] | 0.1 | 0.1 | 0.0 | 0.0 | 0.1 | 0.1
CCCCCCCCCCCCCCOC(=O)CCN(CCC(=O)OCCCCCCCCCCCCCC)CC1COC(C)(C)O1 (stereo not drawn) [LF7] | 0.1 | 0.1 | 0.0 | 0.0 | 0.1 | 0.1
CCCCCCCCCCCCCCOC(=O)CCN(CCOC)CCC(=O)OCCCCCCCCCCCCCC [LF10] | 0.1 | 0.1 | 0.0 | 0.0 | 0.1 | 0.1
CCCCCCCCCCCCCCOC(=O)CCN(CCOCC)CCC(=O)OCCCCCCCCCCCCCC [LF11] | 0.1 | 0.1 | 0.0 | 0.0 | 0.1 | 0.1
CCCCCCCCCCCCCCOC(=O)CCN(CCC(=O)OCCCCCCCCCCCCCC)CC(OC)OC [LF13] | 0.1 | 0.1 | 0.0 | 0.0 | 0.1 | 0.1
CCCCCCCCCCCCCCOC(=O)CCN(CCC(=O)OCCCCCCCCCCCCCC)CC1CCCO1 (stereo not drawn) [LF15] | 0.1 | 0.1 | 0.0 | 0.0 | 0.1 | 0.1
CCCCCCCCCCCCCCOC(=O)CCN(CCC(=O)OCCCCCCCCCCCCCC)CCc1ccc(OC)c(OC)c1 [LF17] | 0.1 | 0.1 | 0.1 | 0.1 | 0.1 | 0.1
CCCCCCCCCCCCCCOC(=O)CCN(CCCO)CCC(=O)OCCCCCCCCCCCCCC [LF20] | 0.2 | 0.4 | 0.3 | 0.2 | 0.1 | 0.1
CCCCCCCCCCCCCCOC(=O)CCN(CCC(=O)OCCCCCCCCCCCCCC)C[C@@H](C)O [LF21] | 0.4 | 0.4 | 0.4 | 0.4 | 0.4 | 0.4
CCCCCCCCCCCCCCOC(=O)CCN(CCC(=O)OCCCCCCCCCCCCCC)C[C@H](C)O [LF22] | 0.1 | 0.1 | 0.1 | 0.1 | 0.1 | 0.1
CCCCCCCCCCCCCCOC(=O)CCN(CCC(=O)OCCCCCCCCCCCCCC)CC(O)CO (stereo not drawn) [LF24] | 0.1 | 0.1 | 0.1 | 0.2 | 0.3 | 0.3
CCCCCCCCCCCCCCOC(=O)CCN(CCC(=O)OCCCCCCCCCCCCCC)C(CO)CO [LF25] | 0.1 | 0.2 | 0.3 | 0.4 | 0.9 | 1.5
CCCCCCCCCCCCCCOC(=O)CCN(CCC(=O)OCCCCCCCCCCCCCC)C(C)(CO)CO [LF26] | 0.1 | 0.2 | 0.7 | 0.1 | 0.1 | 0.3
CCCCCCCCCCCCCCOC(=O)CCN(CCCCO)CCC(=O)OCCCCCCCCCCCCCC [LF28] | 0.1 | 0.1 | 0.1 | 0.2 | 0.3 | 0.4
CCCCCCCCCCCCCCOC(=O)CCN(CCCCCO)CCC(=O)OCCCCCCCCCCCCCC [LF32] | 0.1 | 0.1 | 0.2 | 0.1 | 0.4 | 0.4
CCCCCCCCCCCCCCOC(=O)CCN(CCC(=O)OCCCCCCCCCCCCCC)CC(C)(C)CO [LF33] | 0.1 | 0.1 | 0.1 | 0.1 | 0.1 | 0.1
CCCCCCCCCCCCCCOC(=O)CCN(CCC(=O)OCCCCCCCCCCCCCC)C(CC)(CO)CO [LF34] | 0.1 | 0.3 | 1.1 | 0.5 | 0.2 | 0.3
CCCCCCCCCCCCCCOC(=O)CCN(CCCCCCO)CCC(=O)OCCCCCCCCCCCCCC [LF36] | 0.1 | 0.1 | 0.1 | 0.1 | 0.1 | 0.1
CCCCCCCCCCCCCCOC(=O)CCN(CCC(=O)OCCCCCCCCCCCCCC)C1CCC(O)CC1 (stereo not drawn) [LF38] | 0.8 | 0.9 | 0.9 | 0.9 | 0.8 | 1.0
CCCCCCCCCCCCCCOC(=O)CCN(C)CCN(C)CCC(=O)OCCCCCCCCCCCCCC [LF60] | 0.4 | 0.4 | 0.5 | 0.5 | 0.5 | 0.5
